Like-named read-outs stand apart in the source and are kept apart here.
Legend:
15-PGDH = biological target: T1, 15-PGDH (Homo sapiens, UniProt P15428); experiment: 15-PGDH test (maximum reaction rate, optical density at 340 nm); type: biochemical
T1 construct: GST (glutathione S-transferase, pGEX 4T3) (N, cleaved yes); made in house; host or cells: E. coli BL21DE3plys
T1 sequence (P15428 1-266): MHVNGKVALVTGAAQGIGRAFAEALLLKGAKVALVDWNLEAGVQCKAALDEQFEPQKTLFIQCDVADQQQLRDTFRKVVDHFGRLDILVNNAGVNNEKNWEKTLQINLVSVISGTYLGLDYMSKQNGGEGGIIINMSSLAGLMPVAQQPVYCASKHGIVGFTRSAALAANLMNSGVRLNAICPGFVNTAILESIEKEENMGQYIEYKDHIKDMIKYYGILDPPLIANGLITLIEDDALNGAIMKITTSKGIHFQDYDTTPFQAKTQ
Description: For that, the following are for example brought into contact: the enzyme 15-PGDH at a final concentration of 7×10^−3 mg/ml, its cosubstrate (β-NAD) and a substrate (PGE2) at the concentrations corresponding to the conditions conventionally used for this test as described for example by Cho and Tai (Inhibition of NAD-dependent 15-hydroxyprostaglandin dehydrogenase (15-PGDH) by cyclooxygenase inhibitors and chemopreventive agents. Prostaglandins, Leukotrienes and Essential Fatty Acids, 2002, 67(6): 461-465), for example 1.5 mM β-NAD and 50 μM prostaglandin E2. The rate of the reaction is measured at 37° C. for 1 minute. The same reaction is carried out, but adding the test compound to the medium at the start of the reaction. The maximum enzyme reaction rate per unit of time (Vmax) measured in the presence of the compound is compared to that of the control with no compound, and the percentage inhibition [100−(Vmax assay×100)/Vmax control] is determined.
The enzyme obtained is at the concentration of 0.3 mg/ml and is blocked at −80° C. This suspension is thawed and stored on ice.
Preparation of a 100 mM Tris buffer pH=7.4 containing 0.1 mM dithiothreitol (D5545, Sigma-Aldrich, L'isle D'Abeau Chesne, BP 701, 38297, Saint Quentin Fallavier), 1.5 mM β-NAD (N6522, Sigma-Aldrich, L'isle D'Abeau Chesne, BP 701, 38297, Saint Quentin Fallavier), 50 μM Prostaglandin E2 (P4172, Sigma-Aldrich, L'isle D'Abeau Chesne, BP 701, 38297, Saint Quentin Fallavier).
0.965 ml of this buffer (previously heated to 37° C.) is introduced into a spectrophotometer cuvette (Perkin-Elmer, Lambda 2) thermostated at 37° C., whose wavelength for measurement is set at 340 nm. 0.035 ml of enzymatic suspension at 37° C. are introduced into the cuvette concomitantly with the recording (increase in the optical density at 340 nm).
(§1) The maximum reaction rate is recorded.
(§2) The test values (molecules) are compared with the control value (with no molecule), the results are expressed as % of the control value.

PGFS = biological target: T2, PGFS (Homo sapiens, UniProt P42330, H5Q); experiment: PGFS test (maximum reaction rate, optical density at 340 nm); type: biochemical; conditions: for IC50: protocol of Example 3
T2 construct: GST (glutathione S-transferase, pGEX 2T) (N, cleaved yes); made in house; host or cells: E. coli BL21DE3
T2 sequence (P42330 1-323 H5Q): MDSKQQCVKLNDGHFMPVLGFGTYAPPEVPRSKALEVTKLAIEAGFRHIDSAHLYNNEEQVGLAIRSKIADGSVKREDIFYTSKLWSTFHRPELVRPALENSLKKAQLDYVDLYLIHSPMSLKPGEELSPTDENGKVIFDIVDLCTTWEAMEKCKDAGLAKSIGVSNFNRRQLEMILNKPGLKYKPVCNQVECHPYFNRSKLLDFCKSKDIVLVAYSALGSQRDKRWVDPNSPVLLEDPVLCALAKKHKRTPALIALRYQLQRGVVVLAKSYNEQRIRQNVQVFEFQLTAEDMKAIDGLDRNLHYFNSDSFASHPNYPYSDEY
Description: The compounds noted as 15-PGDH inhibitors are then tested for their capacity to inhibit PGF synthase. For that, the following are for example brought into contact: the enzyme PGFS at a final concentration of 25×10^−3 mg/l, its cosubstrate (β-NADPH2) and a substrate (for example phenanthrenequinone) at the concentrations conventionally used for this test as described for example by Suzuki et al. (cDNA cloning, expression and mutagenesis study of liver-type prostaglandin F synthase. J Biol Chem, 1999, 274(1): 241-248), that is to say 100 μM β-NADPH2 and 20 μM phenanthrenequinone. The maximum reaction rate is measured per unit of time at 37° C. The same reaction is carried out but adding the test compound to the medium at the start of the reaction. The maximum enzyme reaction rate with the compound is compared to that of the control with no compound, and the percentage inhibition [100−(Vmax assay×100)/Vmax control] is determined.
The enzyme obtained is at a concentration of 0.5 mg/ml and blocked at −80° C. This suspension is thawed and stored on ice.
Preparation in a brown flask (protection from light) of a 100 mM Tris buffer pH=6.5 containing 20 μM 9,10-phenanthrenequinone* (P2896, Sigma-Aldrich, L'isle D'Abeau Chesne, BP 701, 38297, Saint Quentin Fallavier) and 100 μM β-NADPH (N1630, Sigma-Aldrich, L'isle D'Abeau Chesne, BP 701, 38297, Saint Quentin Fallavier). A stock solution having a titre of 1 mM is prepared in absolute ethanol heated to 40° C., the flask is placed in an ultrasonic tank in order to facilitate the solubilization of the product.
0.950 ml of this buffer (previously heated to 37° C.) is introduced into the cuvette of a spectrophotometer (Perkin-Elmer, Lambda 2) thermostated at 37° C. whose wavelength for measurement is set at 340 nm. 0.05 ml of enzymatic suspension at 37° C. is introduced into the cuvette concomitantly with the recording (reduction in the optical density at 340 nm).
as §1, §2

[1] = test system: PGF2α secreted by U937 cells; experiment: Cellular model: PGF2α secreted by PMA-differentiated, LPS-stimulated U937 cells; type: cell-based; conditions: 5 μM; U937 + 10 nM PMA, then LPS, 6 h
Description: This makes it possible to evaluate the efficacy of a selective 15-PGDH inhibitor on the protection of prostaglandins in a complex biological system producing the different types of enzyme involved in the metabolism of these molecules. For example, a culture of promonocytes is used, these being precursors of macrophages under certain conditions, a model which is very widespread for studying the metabolism of prostaglandins.
Indeed, the phorbol esters (10 nM PMA) cause within 24 h 00 min the differentiation of the promonocyte line U937 into macrophages; this differentiation is accompanied by the induction of 15-PGDH. (Tong and Tai, Biochim Biophys Acta, 2000; 1497: 61-68).
Moreover, stimulation of these macrophages by LPS (lipopolysaccharide extracted from the bacterial wall) induces (at 100 ng/ml) in 6 h 00 min PGHS-2 (or COX-2), an enzyme responsible (in the same way as COX-1) for the synthesis of PGH2, a precursor (inter alia) via PGFS, of PGF2α (Arias-Negrete et al., 1995. Biochem Biophys Res Commun, 208(2), 582-589).
In a 1st stage, macrophage precursors are cultured in a suitable medium, in the presence of a compound stimulating their differentiation and the induction of 15-PGDH, and then the production of prostaglandins by these cells is stimulated, for example by LPSs in the form of an extract or by purified LPSs; this 2nd stage is performed in the presence or otherwise of the compound to be tested. The concentrations of prostaglandins, in particular of PGF2α, obtained in the presence of the 15-PGDH inhibiting compound to be tested are compared to that of the control containing only the 15-PGDH inducer, it being possible to carry out this measurement by any method known to a person skilled in the art, in particular by immunoenzymatic assay. […]
All the wells will contain the same final quantity of DMSO.
Immediate evaluation of the quantity of PGF2α secreted by the cells (50 μl) under different conditions (molecules or controls) using an immunoenzymatic assay kit (Cayman ref. 516011). […]

[2] = protocol of Example 3, read-out: Inhibition of 15-PGDH at 50 μM

| SMILES | inhibition at 50 µM (15-PGDH; [2]) [%] | IC50 (PGFS) [µM] | IC50 (15-PGDH; protocol of Example 3) [µM] | inhibition at 50 µM (15-PGDH; read-out: % Inhibition 15-PGDH) [%] | inhibition at 50 µM (PGFS) [%] | PGF2α secreted, % of the control (LPS control) [1] |
| --- | --- | --- | --- | --- | --- | --- |
| COc1ccccc1NC(=O)Cn1nnc(-c2ccccc2)n1 [Compound 4, N-(2-methoxyphenyl)-2-(5-phenyl-2H-tetrazol-2-yl)acetamide] | 60 | > 75 | 55 |  |  | +6% |
| Cc1ccc(NC(=O)Cn2nnc(-c3cccc(C(F)(F)F)c3)n2)cc1 [Compound R29A, N-(4-methylphenyl)-2-{5-[3-(trifluoromethyl)phenyl]-2H-tetrazol-2-yl}acetamide] |  | > 75 | 30 |  |  | +46% |
| Nc1c(Cl)nc(-c2ccccc2)nc1Cl [Molecule A, 5-amino-4,6-dichloro-2-phenylpyrimidine] |  |  |  | 43 | 5 |  |

Now from value to compound, other results behind:

| inhibition at 50 µM (15-PGDH; [2]) [%] | IC50 (PGFS) [µM] | IC50 (15-PGDH; protocol of Example 3) [µM] | inhibition at 50 µM (15-PGDH; read-out: % Inhibition 15-PGDH) [%] | inhibition at 50 µM (PGFS) [%] | SMILES | PGF2α secreted, % of the control (LPS control) [1] |
| --- | --- | --- | --- | --- | --- | --- |
| 70 | > 75 |  |  |  | O=C(Cc1nnn(-c2ccccc2)n1)c1ccccc1 [Compound 1, 1-phenyl-2-(2-phenyl-2H-tetrazol-5-yl)ethanone] | +16% |
|  |  |  | 57 | 10 | O=C(Nc1ncc2c(n1)CC(c1ccccc1Cl)CC2=O)c1ccccc1 (centres unmarked) [Molecule B, N-[7-(2-Chlorophenyl)-5-oxo-5,6,7,8-tetrahydroquinazolin-2-yl]benzamide] |  |
